Experimental data as given in patent EP0371730A1, “Dopamine-B-Hydroxylase inhibitors” (SMITHKLINE BEECHAM CORPORATION, priority 1988, dated 1990).

Key:
[1] = system: spontaneously hypertensive rats; experiment: mean arterial blood pressure in spontaneously hypertensive rats; assay type: in vivo; conditions: 50 mg/kg intraperitoneally, compared to vehicle-treated controls
Procedure: Further, spontaneously hypertensive rats were treated with 1-(2-imidazolylmethyl)-1,3-dihydro-2H-imidazole-2-thione at a dose of 50 mg/kg intraperitoneally, and mean arterial blood pressure was monitored for 250 minutes using indwelling cannulae in the tail arteries. […] The maximal blood pressure reduction was approximately 40 mmHg.

[2] = see Teresawa et al.; cited from earlier work
DBH = molecular target: T1, DBH (Homo sapiens, UniProt P09172); conditions: as reported by Runti et al.; cited from earlier work
T1 sequence (P09172 1-617): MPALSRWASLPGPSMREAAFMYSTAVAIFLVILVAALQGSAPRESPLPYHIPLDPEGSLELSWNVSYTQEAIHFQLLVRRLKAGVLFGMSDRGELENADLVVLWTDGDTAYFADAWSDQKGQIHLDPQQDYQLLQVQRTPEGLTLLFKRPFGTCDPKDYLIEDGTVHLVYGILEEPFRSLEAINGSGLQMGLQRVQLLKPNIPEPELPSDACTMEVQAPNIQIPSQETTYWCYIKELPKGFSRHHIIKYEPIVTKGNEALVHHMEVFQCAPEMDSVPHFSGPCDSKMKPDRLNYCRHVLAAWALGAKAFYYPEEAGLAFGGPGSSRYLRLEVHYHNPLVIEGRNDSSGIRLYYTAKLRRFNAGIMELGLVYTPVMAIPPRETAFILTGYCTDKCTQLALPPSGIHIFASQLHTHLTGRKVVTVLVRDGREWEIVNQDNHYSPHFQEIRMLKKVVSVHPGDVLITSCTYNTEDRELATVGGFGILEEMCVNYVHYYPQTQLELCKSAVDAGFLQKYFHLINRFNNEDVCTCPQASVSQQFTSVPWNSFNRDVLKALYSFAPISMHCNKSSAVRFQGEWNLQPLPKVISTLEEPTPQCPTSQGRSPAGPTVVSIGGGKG

S=c1[nH]ccn1Cc1ncc[nH]1 [1-(2-Imidazolylmethyl)-1,3-dihydro-2H-imidazole-2-thione]
time to significant blood pressure reductions following treatment [1]: ≤ 30 min
maximal blood pressure reduction ([1]; mean arterial blood pressure monitored for 250 minutes): approximately 40 mmHg

CCCCc1ccc(C(=O)O)nc1 [Fusaric acid]
hepatotoxicity [2]: hepatotoxic

phenylpicolinic acid
inhibitory activity relative to fusaric acid (DBH): twice the inhibitory activity of fusaric acid
